Values quoted from earlier work as cited in patent US20070281020A1, “PHARMACEUTICAL COMPOSITIONS FOR SUSTAINED RELEASE OF PHENYLEPHRINE” (priority 2006, published 2007).

Settings: active metabolite of loratadine

Structure (SMILES): Clc1ccc2c(c1)CCc1cccnc1C2=C1CCNCC1 [desloratadine]
- half-life (t1/2): 15 to 19 h
